{"source": "patent US20030017186A1", "about": "“Carboxylic acid fluorides as pesticides” (priority 1999, published 2003)", "key": {"[1]": {"tested_on": "House longhorn beetle (Hylotrupes bajulus)", "test": "Fumigation test in glass vessel, house longhorn beetles", "assay_type": "in vivo", "settings": "HYLOBA beetles", "description": "(§1) b1) House longhorn beetle (Hylotrupes bajulus)=HYLOBA\n(§2) The test organisms, separated by species, were placed into a glass vessel measuring 30 cm×30 cm×60 cm, which was sealed with a glass lid so as to be airtight. The adults and the larvae of the mealworm beetle (Tenebrio molitor) and the broad-horned flour beetle (Gnathocerus cornutus) were placed into small glass vessels approximately 5 cm in diameter, which were closed with a gauze lid and in which they could freely move about. The larvae of the rice weevil had burrowed into seeds of grain. The wood pest larvae were inserted into small blocks of wood measuring 5 cm×2.5 cm×2 cm. The openings were sealed with wads of cotton wool. Only one each of the larvae of the house longhorn beetle (Hylotrupes bajulus) was inserted into a piece of wood, while 6-8 larvae of the common furniture beetle (Anobium punctatum) were inserted into each piece of wood.\n(§3) The respective gas was then introduced into the fumigation vessel through a gas line from a gas tank that contained the specified amount of gas. After a defined time period, the fumigation vessel was purged with compressed air. The discharged gas was purified by an attached gas scrubber.\n(§4) The beetles were observed until they died. This point was recorded for each species. The larvae of the wood pests as well as the larvae of the rice weevil (Sitophilus oryzae) had to be picked out of the wood or the grain to check their condition. If any of the animals were still alive, the wooden test blocks remaining in the vessel were fumigated again and were reexamined after the corresponding time span had elapsed. The same number of animals in the untreated control was also checked at each point.\n(§5) The vitality of the animals was checked at certain time intervals. The beetles could be observed through the fumigation vessel. This was also true for the larvae of the mealworm beetle and the broad-horned flour beetle. The wooden test blocks of the wood pest larvae were opened with hammer and chisel. Tweezers were used to pull the rice weevil larvae out of the grain seeds. The exact time intervals and the number of the evaluated pests were documented in the test results."}, "[2]": {"tested_on": "Broad-horned flour beetle (Gnathocerus cornutus)", "test": "Fumigation test in glass vessel, broad-horned flour beetles", "assay_type": "in vivo", "settings": "GNATCO beetles; Example 3; gas 45.8 g/m^3, 17.2° C. (1st fumigation), 45.4 g/m^3, 17.7° C. (2nd); 54% rel. air humidity", "description": "(§6) a3) Broad-horned flour beetle (Gnathocerus cornutus)=GNATCO\nas §2, §3, §4, §5"}, "[3]": {"tested_on": "Rice weevil (Sitophilus oryzae) larvae", "test": "Fumigation test in glass vessel, rice weevil larvae in grain seeds", "assay_type": "in vivo", "settings": "SITTOR larvae in grain seeds; Example 3; gas 45.8 g/m^3, 17.2° C. (1st fumigation), 45.4 g/m^3, 17.7° C. (2nd); 54% rel. air humidity", "description": "(§7) a2) Rice weevil (Sitophilus oryzae)=SITTOR\nas §2, §3, §4, §5"}, "[4]": {"tested_on": "Mealworm beetle (Tenebrio molitor)", "test": "Fumigation test in glass vessel, mealworm beetles", "assay_type": "in vivo", "settings": "TENEMO beetles; Example 3; gas 45.8 g/m^3, 17.2° C. (1st fumigation), 45.4 g/m^3, 17.7° C. (2nd); 54% rel. air humidity", "description": "(§8) a1) Mealworm beetle (Tenebrio molitor)=TENEMO\nas §2, §3, §4, §5"}, "[5]": {"tested_on": "Rice weevil (Sitophilus oryzae)", "test": "Fumigation test in glass vessel, rice weevils", "assay_type": "in vivo", "settings": "SITTOR beetles; Example 3; gas 45.8 g/m^3, 17.2° C. (1st fumigation), 45.4 g/m^3, 17.7° C. (2nd); 54% rel. air humidity", "description": "as §7, §2, §3, §4, §5"}, "[6]": {"tested_on": "wood pests (house longhorn beetle, common furniture beetle)", "test": "Fumigation test, wood pests", "assay_type": "in vivo, Hylotrupes bajulus, Anobium punctatum", "description": "as §2, §3, §4, §5"}, "[7]": {"tested_on": "Mealworm beetle (Tenebrio molitor) larvae", "test": "Fumigation test in glass vessel, mealworm beetle larvae", "assay_type": "in vivo", "settings": "TENEMO larvae; Example 3; gas 45.8 g/m^3, 17.2° C. (1st fumigation), 45.4 g/m^3, 17.7° C. (2nd); 54% rel. air humidity", "description": "as §8, §2, §3, §4, §5"}, "[8]": {"tested_on": "Common furniture beetle (Anobium punctatum) larvae", "test": "Fumigation test in glass vessel, common furniture beetle larvae in wood blocks", "assay_type": "in vivo", "settings": "ANOBPU larvae in wood blocks", "description": "(§9) b2) Common furniture beetle (Anobium punctatum)=[…]\nas §2, §3, §4, §5"}, "[9]": {"tested_on": "House longhorn beetle (Hylotrupes bajulus) larvae", "test": "Fumigation test in glass vessel, house longhorn beetle larvae in wood blocks", "assay_type": "in vivo", "settings": "HYLOBA larvae in wood blocks", "description": "as §1, §2, §3, §4, §5"}, "[10]": {"tested_on": "Common furniture beetle (Anobium punctatum)", "test": "Fumigation test in glass vessel, common furniture beetles", "assay_type": "in vivo", "settings": "ANOBPU beetles", "description": "as §9, §2, §3, §4, §5"}, "[11]": {"tested_on": "Broad-horned flour beetle (Gnathocerus cornutus) larvae", "test": "Fumigation test in glass vessel, broad-horned flour beetle larvae", "assay_type": "in vivo", "settings": "GNATCO larvae; Example 3; gas 45.8 g/m^3, 17.2° C. (1st fumigation), 45.4 g/m^3, 17.7° C. (2nd); 54% rel. air humidity", "description": "as §6, §2, §3, §4, §5"}, "[12]": {"tested_on": "wood and storage pests", "test": "Fumigation test, wood and storage pests (overall statements)", "assay_type": "in vivo", "settings": "Conclusion of Examples 1-5", "description": "as §2, §3, §4, §5"}, "[13]": {"tested_on": "Saw-toothed grain beetle (Oryzaephilus surinamensis)", "test": "Fumigation test in glass vessel, saw-toothed grain beetles", "assay_type": "in vivo", "settings": "ORYZSA beetles; Example 3; gas 45.8 g/m^3, 17.2° C. (1st fumigation), 45.4 g/m^3, 17.7° C. (2nd); 54% rel. air humidity", "description": "a4) Saw-toothed grain beetle (Oryzaephilus surinamensis)=ORYZSA\nas §2, §3, §4, §5"}, "[14]": {"settings": "Example 1, gas 54.8 g/m^3, 16° C. (1st fumigation), 58.0 g/m^3, 13° C. (2nd), 66% rel. air humidity"}, "[15]": {"settings": "Example 2, ventilator operation in vessel, gas 57.6 g/m^3, 20.6° C. (1st fumigation), 48.0 g/m^3, 21.5° C. (2nd)"}}, "data": [{"smiles": "O=C(F)C(F)(F)F", "note": "[Trifluoroacetyl Fluoride, Trifluoroacetyl fluoride]", "values": [{"measurement": "Number alive, 1 hr. after Start of Fumigation", "setting": "[1]; [14]", "result": 2}, {"measurement": "Number alive, 3 hrs. after Start of Fumigation", "setting": "[1]; [14]", "result": 0}, {"measurement": "Number dead, 1 hr. after Start of Fumigation", "setting": "[1]; [14]", "result": 4}, {"measurement": "Number dead, 3 hrs. after Start of Fumigation", "setting": "[1]; [14]", "result": 6}, {"measurement": "Number alive, 1 hr. after Start of Fumigation", "setting": "[1]; [15]", "result": 1}, {"measurement": "Number alive, 12 hrs. after Start of Fumigation", "setting": "[1]; [15]", "result": 0}, {"measurement": "Number dead, 1 hr. after Start of Fumigation", "setting": "[1]; [15]", "result": 5}, {"measurement": "Number dead, 12 hrs. after Start of Fumigation", "setting": "[1]; [15]", "result": 6}, {"measurement": "Number alive, 1 hr. after Start of Fumigation", "setting": "[2]", "result": 0}, {"measurement": "Number dead, 1 hr. after Start of Fumigation", "setting": "[2]", "result": 15}, {"measurement": "Number alive, 1 hr. after Start of Fumigation", "setting": "[3]", "result": 5}, {"measurement": "Number alive, 3 hrs. after Start of Fumigation", "setting": "[3]", "result": 0}, {"measurement": "Number dead, 1 hr. after Start of Fumigation", "setting": "[3]", "result": 15}, {"measurement": "Number dead, 3 hrs. after Start of Fumigation", "setting": "[3]", "result": 20}, {"measurement": "Number alive, 1 hr. after Start of Fumigation", "setting": "[4]", "result": 0}, {"measurement": "Number dead, 1 hr. after Start of Fumigation", "setting": "[4]", "result": 15}, {"measurement": "Number alive, 1 hr. after Start of Fumigation", "setting": "[5]", "result": 0}, {"measurement": "Number dead, 1 hr. after Start of Fumigation", "setting": "[5]", "result": 20}, {"measurement": "Time after which the animals became very active", "setting": "[6]; Example 1, exposed beetles and larvae, gas 54.8 g/m^3, 16° C.", "result": "1 to 2", "unit": "min"}, {"measurement": "Time after which all the beetles lay on their backs, only legs and feelers moving slightly", "setting": "[6]; Example 1, exposed beetles, gas 54.8 g/m^3, 16° C.", "result": "about 10 minutes"}, {"measurement": "Penetration of the wood to kill the larvae completely", "setting": "[6]; Example 1, larvae in wooden test blocks, within a time span of 48 hours", "result": "does not penetrate the wood sufficiently"}, {"measurement": "Time after which larvae without wooden test blocks were dead", "setting": "[6]; Example 1, larvae without wooden test blocks, gas 54.8 g/m^3, 16° C.", "result": "approximately 1 hour"}, {"measurement": "Effectiveness with respect to the larvae with ventilators", "setting": "[6]; Example 2, air circulation through ventilators, compared with Example 1", "result": "no improvement in the effectiveness"}, {"measurement": "Number alive, 1 hr. after Start of Fumigation", "setting": "[7]", "result": 0}, {"measurement": "Number dead, 1 hr. after Start of Fumigation", "setting": "[7]", "result": 15}, {"measurement": "Number alive, 24 hrs. after Start of Fumigation", "setting": "[8]; [14]", "result": 10}, {"measurement": "Number alive, 48 hrs. after Start of Fumigation", "setting": "[8]; [14]", "result": 6}, {"measurement": "Number dead, 24 hrs. after Start of Fumigation", "setting": "[8]; [14]", "result": 0}, {"measurement": "Number dead, 48 hrs. after Start of Fumigation", "setting": "[8]; [14]", "result": 4}, {"measurement": "Number alive, 12 hrs. after Start of Fumigation", "setting": "[8]; [15]", "result": 11}, {"measurement": "Number alive, 24 hrs. after Start of Fumigation", "setting": "[8]; [15]", "result": 10}, {"measurement": "Number alive, 48 hrs. after Start of Fumigation", "setting": "[8]; [15]", "result": 0}, {"measurement": "Number dead, 12 hrs. after Start of Fumigation", "setting": "[8]; [15]", "result": 1}, {"measurement": "Number dead, 24 hrs. after Start of Fumigation", "setting": "[8]; [15]", "result": 2}, {"measurement": "Number dead, 48 hrs. after Start of Fumigation", "setting": "[8]; [15]", "result": 12}, {"measurement": "Number alive, 24 hrs. after Start of Fumigation", "setting": "[9]; [14]", "result": 6}, {"measurement": "Number alive, 48 hrs. after Start of Fumigation", "setting": "[9]; [14]", "result": 3}, {"measurement": "Number dead, 24 hrs. after Start of Fumigation", "setting": "[9]; [14]", "result": 0}, {"measurement": "Number dead, 48 hrs. after Start of Fumigation", "setting": "[9]; [14]", "result": 3}, {"measurement": "Number alive, 12 hrs. after Start of Fumigation", "setting": "[9]; [15]", "result": 7}, {"measurement": "Number alive, 24 hrs. after Start of Fumigation", "setting": "[9]; [15]", "result": 7}, {"measurement": "Number alive, 48 hrs. after Start of Fumigation", "setting": "[9]; [15]", "result": 6}, {"measurement": "Number dead, 12 hrs. after Start of Fumigation", "setting": "[9]; [15]", "result": 0}, {"measurement": "Number dead, 24 hrs. after Start of Fumigation", "setting": "[9]; [15]", "result": 0}, {"measurement": "Number dead, 48 hrs. after Start of Fumigation", "setting": "[9]; [15]", "result": 1}, {"measurement": "Number alive, 1 hr. after Start of Fumigation", "setting": "[10]; [14]", "result": 0}, {"measurement": "Number dead, 1 hr. after Start of Fumigation", "setting": "[10]; [14]", "result": 6}, {"measurement": "Number alive, 1 hr. after Start of Fumigation", "setting": "[10]; [15]", "result": 0}, {"measurement": "Number dead, 1 hr. after Start of Fumigation", "setting": "[10]; [15]", "result": 6}, {"measurement": "Number alive, 1 hr. after Start of Fumigation", "setting": "[11]", "result": 0}, {"measurement": "Number dead, 1 hr. after Start of Fumigation", "setting": "[11]", "result": 15}, {"measurement": "Effectiveness against exposed beetles and larvae", "setting": "[12]", "result": "very effective"}, {"measurement": "Number alive, 1 hr. after Start of Fumigation", "setting": "[13]", "result": 0}, {"measurement": "Number dead, 1 hr. after Start of Fumigation", "setting": "[13]", "result": 15}]}]}
